# Assay results from the supplement of paper PMC4862054.
# Experiments:
# Settings in all cases: incubation time: 72 h
# HCC1143 [1] = assay: normalised response (% of control), CellTiter-Glo; higher = more viable cells (100 = DMSO, 0 = benzethonium chloride kill control)
# Procedure, shortened: (§1)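 Compound was dispensed into 384-well plates at 5 concentrations in 10-fold steps spanning a 10,000-fold range specific to that compound. Breast cancer cell lines were added as 20 µl suspension and left for 72 h before CellTox Green fluorescence (485/520 nm) and then CellTiter-Glo luminescence, read after 10 min at room temperature. Each reported value is the normalised signal at one concentration, with 0.1 % DMSO set at 100 and a positive kill control at 0 on each plate.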
# HDQ-P1 [2] = assay: as above
# Procedure, shortened: as §1
# CAL-85-1 [3] = assay: as above
# Procedure, shortened: as §1
# DU-4475 [4] = assay: as above
# Procedure, shortened: as §1
# MDA-MB-231 [5] = assay: as above
# Procedure, shortened: as §1
# CAL-51 [6] = assay: as above
# Procedure, shortened: as §1
# CAL-148 [7] = assay: as above
# Procedure, shortened: as §1
# Hs578T [8] = assay: as above
# Procedure, shortened: as §1
# MDA-MB-453 [9] = assay: as above
# Procedure, shortened: as §1
# MDA-MB-468 [10] = assay: as above
# Procedure, shortened: as §1
# SK-BR-3 [11] = assay: as above
# Procedure, shortened: as §1
# BT-549 [12] = assay: as above
# Procedure, shortened: as §1
# HCC1599 [13] = assay: as above
# Procedure, shortened: as §1
# CAL-120 [14] = assay: as above
# Procedure, shortened: as §1
# MDA-MB-436 [15] = assay: as above
# Procedure, shortened: as §1
# BT-474 [16] = assay: as above
# Procedure, shortened: as §1
# HCC1937 [17] = assay: as above
# Procedure, shortened: as §1
# MFM-223 [18] = assay: as above
# Procedure, shortened: as §1
# MCF-10A = assay: as above
# Procedure, shortened: as §1
# HCC1143 [19] = assay: normalised viability (% of control), CellTiter-Blue; higher = more viable cells (100 = DMSO, 0 = benzethonium chloride kill control)
# Method: (§2)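 DSRT, CellTiter-Blue viability, 72 h incubation. Signal is normalised to DMSO and benzethonium chloride controls. Value is the normalised response at dose 1.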
# HDQ-P1 [20] = assay: as above
# Method: as §2
# CAL-85-1 [21] = assay: as above
# Method: as §2
# DU-4475 [22] = assay: as above
# Method: as §2
# MDA-MB-231 [23] = assay: as above
# Method: as §2
# CAL-51 [24] = assay: as above
# Method: as §2
# CAL-148 [25] = assay: as above
# Method: as §2
# Hs578T [26] = assay: as above
# Method: as §2
# MDA-MB-453 [27] = assay: as above
# Method: as §2
# MDA-MB-468 [28] = assay: as above
# Method: as §2
# SK-BR-3 [29] = assay: as above
# Method: as §2
# BT-549 [30] = assay: as above
# Method: as §2
# HCC1599 [31] = assay: as above
# Method: as §2
# CAL-120 [32] = assay: as above
# Method: as §2
# MDA-MB-436 [33] = assay: as above
# Method: as §2
# BT-474 [34] = assay: as above
# Method: as §2
# HCC1937 [35] = assay: as above
# Method: as §2
# MFM-223 [36] = assay: as above
# Method: as §2
Structure (SMILES),normalised response (HCC1143 [1]),normalised response (HDQ-P1 [2]),normalised response (CAL-85-1 [3]),normalised response (DU-4475 [4]),normalised response (MDA-MB-231 [5]),normalised response (CAL-51 [6]),normalised response (CAL-148 [7]),normalised response (Hs578T [8]),normalised response (MDA-MB-453 [9]),normalised response (MDA-MB-468 [10]),normalised response (SK-BR-3 [11]),normalised response (BT-549 [12]),normalised response (HCC1599 [13]),normalised response (CAL-120 [14]),normalised response (MDA-MB-436 [15]),normalised response (BT-474 [16]),normalised response (HCC1937 [17]),normalised response (MFM-223 [18]),normalised response (MCF-10A),normalised viability (HCC1143 [19]),normalised viability (HDQ-P1 [20]),normalised viability (CAL-85-1 [21]),normalised viability (DU-4475 [22]),normalised viability (MDA-MB-231 [23]),normalised viability (CAL-51 [24]),normalised viability (CAL-148 [25]),normalised viability (Hs578T [26]),normalised viability (MDA-MB-453 [27]),normalised viability (MDA-MB-468 [28]),normalised viability (SK-BR-3 [29]),normalised viability (BT-549 [30]),normalised viability (HCC1599 [31]),normalised viability (CAL-120 [32]),normalised viability (MDA-MB-436 [33]),normalised viability (BT-474 [34]),normalised viability (HCC1937 [35]),normalised viability (MFM-223 [36])
CC1=C2C[C@H]3[C@@H](CC=C4C[C@@H](O)CC[C@@]43C)[C@@H]2CC[C@]12O[C@@H]1C[C@H](C)CN[C@H]1[C@H]2C [Cyclopamine] (1 nM),103%,103%,100%,106%,103%,107%,123%,103%,111%,101%,115%,104%,98.1%,107%,106%,103%,106%,103%,108%,97.4%,135%,94.5%,120%,100%,109%,117%,121%,102%,103%,97.3%,111%,96.5%,94%,126%,118%,109%,97.5%
COc1cc(F)c(F)c(Nc2ccc(I)cc2F)c1NS(=O)(=O)C1(C[C@H](O)CO)CC1 [RDEA119] (1 nM),,,,,,,,,,,,,,,,,,,,98.8%,79.4%,108%,99.3%,77.4%,91.8%,88.7%,95.4%,84.5%,95.8%,106%,97.3%,93%,98.7%,104%,79.7%,80.9%,92.5%
Nc1ncn([C@@H]2O[C@H](CO)[C@@H](O)[C@H]2O)c(=O)n1 [Azacitidine] (1 nM),95.4%,98.7%,103%,102%,101%,129%,96.1%,98.7%,112%,100%,105%,96.5%,96.8%,95.9%,102%,97.1%,94%,104%,101%,89.3%,99.9%,94.9%,109%,89.3%,102%,92%,105%,102%,95.5%,94.6%,93.7%,89.1%,84.4%,108%,89.5%,85%,95.5%
C[C@]1(O)C[C@@H](c2nc(-c3ccc4ccc(-c5ccccc5)nc4c3)c3c(N)nccn32)C1 [OSI-906] (1 nM),,,,,,,,,,,,,,,,,,,,96.8%,74.5%,100%,89%,83.7%,95.6%,94.6%,101%,85.7%,100%,91.1%,95.7%,100%,97.4%,85%,82.9%,92.3%,95.6%
CC(=O)c1c(C)c2cnc(Nc3ccc(N4CCNCC4)cn3)nc2n(C2CCCC2)c1=O (1 nM),,,,,,,,,,,,,,,,,,,,100%,79.2%,87.9%,99%,94.6%,104%,107%,89.5%,106%,109%,93.1%,102%,105%,87.1%,94.1%,108%,94.7%,88.5%
